Source: the METLIN SMRT retention time set (Domingo-Almenara et al. 2019)

Experiment: gradient 5% acetonitrile 3 min, to 50% in 2 min, to 85% in 15 min, held 3 min, 100 µL/min
Details: column: Zorbax Extend-C18 2.1 x 50 mm; eluents: water / acetonitrile, 0.1% formic acid
Summary of the method: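 Using water and acetonitrile that each contained 0.1% formic acid, mixtures of ~100 pure standards were separated at 100 μL/min on a Zorbax Extend-C18 column (2.1 × 50 mm, 1.8 μm). The HPLC fed a quadrupole time-of-flight mass spectrometer working in positive and negative ionization mode, with dead and dwell volumes of 40 μL and 900 μL. Data were acquired over 3 months. Retention time was read from computationally picked adduct peaks after manual inspection of each.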

| Structure (SMILES) | RP-LC retention time |
| --- | --- |
| O=c1c(=O)n(-c2ccc(Br)cc2)ccn1Cc1ccncc1 | 554 s |
| O=C(Nc1ccc(F)c(Cl)c1)Nc1nccn(-c2ccc3c(c2)CCC3)c1=O | 1180 s |
| Cc1noc(C)c1-c1ccc(S(=O)(=O)Nc2ccccc2F)cc1 | 881 s |
| Cc1cc(C)cc(NC(=O)CN2CCC(C(=O)NC3CC3)CC2)c1 | 564 s |
| CCOc1cc(=O)n2c(c1C(=O)N1CCCc3ccccc31)CCCC2 | 707 s |
| COc1cccc(C2Nc3ccccc3NC3=C2C(=O)CC(C)(C)C3)c1O (stereo not given) | 686 s |
| CCNC(=O)NC1CCN(c2nc3cccnc3n(Cc3ccc(C)cc3)c2=O)CC1 | 1010 s |
| Cc1cccc(N2CCN(c3ccc4cc(S(=O)(=O)N5CCC(C)CC5)ccc4n3)CC2C)c1 (stereo not given) | 1200 s |
| CCc1ccc(OCc2nc(CCN(C)C(=O)Nc3ccc(OC)c(OC)c3)no2)cc1 | 856 s |
| Cc1cccc(N2CCN(C(=O)Cc3nnc(-c4sccc4C)o3)CC2)c1 | 921 s |
| CC(=O)c1ccc(N2CCN(C(=O)c3csc(-c4ccc(C)n4C)n3)CC2)cc1 | 955 s |
| Cn1cc(CCNC(=O)Nc2ccccc2C(F)(F)F)c2cccnc21 | 779 s |
| CCN1CCCn2cc(S(=O)(=O)Nc3ccc(C)cc3)cc2C1=O | 1130 s |
| CCC(=O)Nc1ccc(C2(C(=O)NCCN3CCCC3)CCCCC2)cc1 | 606 s |
| COCc1ncc(C)n1CC1CN(C(=O)c2ocnc2C)C1 | 511 s |
| COc1ccccc1OCCNC(=O)C1CCN(c2nnc3ccc(Cl)cn23)CC1 | 707 s |
| CS(=O)(=O)N1CCN(C(=O)CCn2nnc3ccccc3c2=O)CC1 | 604 s |
| Cc1ccc(NS(=O)(=O)c2c(C)c(-c3nnc(C4CCC4)o3)n(C)c2C)cc1 | 918 s |
| Cc1cnn(CC(=O)N2CCCn3ccnc3C2C2CCCC2)c1 (stereo not given) | 597 s |
| CCN1C(=O)CCC2(C(=O)Nc3ccc(OC)cc3OC)CCCC=C12 (stereo not given) | 789 s |
| Cc1noc2ncn(CC(=O)Nc3c(F)c(F)cc(F)c3F)c(=O)c12 | 759 s |
| O=C(Nc1cccc(Cl)c1)C1CCN(S(=O)(=O)c2ccc3[nH]c(=O)ccc3c2)CC1 | 808 s |
| CCc1ccc(-c2noc(Cn3c(=O)n(-c4cccc(OC)c4)c(=O)c4sccc43)n2)cc1 | 1060 s |

| Structure (SMILES) | RP-LC retention time |
| --- | --- |
| COC(=O)Cn1nc2c(-c3nc(-c4ccc(Cl)cc4)no3)cccn2c1=O | 911 s |
| O=C(CSc1nc(CC(=O)N2CCN(c3ccccn3)CC2)cs1)c1cccs1 | 567 s |
| CCN1CCCC1CNC(=O)c1cc(S(=O)(=O)CC)c(N)cc1OC (stereo not given) | 591 s |
| CCC1=NS(=O)(=O)c2cccnc2N1c1ccc(Br)cc1 | 903 s |
| Cn1c(CCN2C(=O)C3(CCOCC3)CC2c2nnnn2C(C)(C)C)nc2ccccc21 (stereo not given) | 578 s |
| O=C(Cn1nc2c(cc1=O)CCCC2)Nc1nc(-c2ccccn2)cs1 | 609 s |
| O=S(=O)(Nc1ccc(F)c(F)c1)c1ccccc1-c1nc(-c2ccccc2)no1 | 1190 s |
| CN1C[C@@H]2C(=O)N(CCc3ccccc3)C(=O)[C@@H]2C1 | 605 s |
| Cc1ccc(C(=O)Nc2ccc3ncnc(N4CCCCC4)c3c2)s1 | 701 s |
| Cc1cc(C)c(S(=O)(=O)N2CCc3c(c(-c4nnc(-c5ccc(F)cc5)o4)nn3C)C2)c(C)c1 | 1090 s |
| O=C(NCc1ccc(F)cc1)C1CCCN(c2ccc3cc(S(=O)(=O)N4CCCC4)ccc3n2)C1 (stereo not given) | 754 s |
| Cc1cc(NC(=O)Cn2nc(N3CCCC3)c3ccccc3c2=O)ccc1Br | 1060 s |
| COc1ccc(-n2c(N)cc(=O)nc2SCC(=O)NC2CCCCC2)cc1 | 601 s |
| c1ccc(-c2noc(-c3ccc(N4CCN(c5ccccn5)CC4)nc3)n2)cc1 | 768 s |
| COc1ccc(Cl)cc1NC(=O)C1(c2ccccc2)CCOCC1 | 1010 s |
| Cn1c(=O)n([C@@H]2CCN(C(=O)CCc3nc4ccccc4s3)C2)c2ncccc21 | 733 s |
| Cn1cc(C(=O)Nc2ccc(N3CCOCC3)cc2)c2cccnc21 | 658 s |
| Cc1ccc(CSc2nnc(-c3ccccc3Cl)o2)cc1 | 1190 s |
| O=C(Nc1ccc(OCC(=O)N2CCN(c3ncccn3)CC2)nc1)C1CC1 | 624 s |
| CCN1CCN(CCCNC(=O)C(C)n2c3ccccc3c3cnn(C)c(=O)c32)CC1 (stereo not given) | 553 s |
| Cc1cc(Cl)ccc1NC(=O)c1cn(C)c2ncccc12 | 827 s |
| O=C(c1ccc2c(c1)nnn2CCN1CCOCC1)N1CCSCC1 | 564 s |
| Cc1nnc([C@@H]2CC(F)(F)CN2C(=O)c2nn(C)c3ccccc23)o1 | 788 s |

| Structure (SMILES) | RP-LC retention time |
| --- | --- |
| Cc1ccc(NC(=O)Cn2nc(N3CCOCC3)c3ccccc3c2=O)cc1Cl | 780 s |
| COc1ccccc1N1CCN(c2ncccc2-c2nc(-c3ccc(Cl)cc3)no2)CC1 | 1320 s |
| Cc1cc2oc3c(c(=O)c2cc1C)C(c1ccccc1F)N(c1nccs1)C3=O (stereo not given) | 1050 s |
| CCNc1nc(C)cc(N2CCN(C(=O)Nc3cc(OC)ccc3OC)CC2)n1 | 626 s |
| Cc1ncc2c(n1)C[C@@H]1CC[C@H]2N1C(=O)Nc1ccc(F)cc1F | 649 s |
| COc1cc(OC)cc(-c2nc(-c3ccc4nnn(C(C)C)c4c3)no2)c1 | 1160 s |
| O=C(c1ccc(S(=O)(=O)c2ccccc2)nc1)N1CCN(C2CCCCC2)CC1 | 566 s |
| COc1ncccc1CNC(=O)NCc1ccco1 | 568 s |
| Cc1cc(Cl)ccc1NC(=O)N(C)CC1CCOC1 (stereo not given) | 756 s |
| Cc1ccc(CNC(=O)CN2CCN(Cc3cccc(Cl)c3)C2=O)o1 | 810 s |
| O=C(Cc1cccc(F)c1)Nc1nnc(SCc2nnc(-c3ccccc3)o2)s1 | 873 s |
| CC1Cc2cc(-c3cc(CC(=O)NCc4ccco4)no3)ccc2O1 (stereo not given) | 616 s |
| Cc1cc(CN2CCC(CNC(=O)c3ccc(S(=O)(=O)N(C)C)cc3)CC2)c(C)o1 | 574 s |
| CCOC(=O)c1c(C)oc2ncnc(N3CCC(c4ccccc4)C3)c12 (stereo not given) | 1100 s |
| Cc1ccccc1Nc1c(-c2ccc(N3CCOCC3)cc2)nc2cccc(C)n12 | 702 s |
| CC(C)CC(=O)Nc1ccc(OCc2cc(C(=O)NC3CCCC3)no2)cc1 | 890 s |
| CCOC(=O)c1[nH]c(C)c(CCC(=O)N2CCC(C(=O)N3CCCCCC3)CC2)c1C | 774 s |
| COc1ccc(CC(=O)N2CCc3cn(C)c4cccc(c34)C2)cc1 | 946 s |
| COc1ccc(NC(=O)C2CCCN2S(=O)(=O)c2cc3c(cc2C)NC(=O)CO3)cc1Cl (stereo not given) | 775 s |
| Cc1ccc(CN2CCC(C(=O)N3CCCCCCNC(=O)CC3)CC2)s1 | 595 s |
| CC1CN(Cc2nc3c(c(=O)n(C)c(=O)n3C)n2CCCc2ccccc2)CC(C)O1 (stereo not given) | 732 s |
| CCNC(=O)c1cc(=O)[nH]c2c(C)cccc12 | 793 s |
| O=C(CC1COc2ccccc2NC1=O)NCCc1ccc(Cl)cc1 (stereo not given) | 910 s |

| Structure (SMILES) | RP-LC retention time |
| --- | --- |
| CCc1nnc(-c2cc(NC(=O)c3ccnn3C)c(C)s2)o1 | 774 s |
| Cn1c(=O)c(N2CCN(C(=O)c3ccccc3F)CC2)nc2ccccc21 | 864 s |
| CCn1c(SC)nnc1-c1nn(C)c2c1CN(C(=O)c1c(F)cccc1F)CC2 | 765 s |
| CCOCCCNC(=O)Nc1ccc(CCc2nc3ccccc3[nH]2)cc1 | 598 s |
| Cn1nccc1-c1cccc(-c2noc(C3CC(=O)N(c4cccc(Cl)c4)C3)n2)c1 (stereo not given) | 978 s |
| COc1ccc(-c2noc(-c3ccc(N4CCN(C(=O)c5ccco5)CC4)nc3)n2)cc1 | 989 s |
| Cc1ccc(S(=O)(=O)N2CCC(C(=O)NCCc3csc(-c4cccs4)n3)CC2)cc1 | 913 s |
| Cc1ccn(-c2ccc(Nc3ccc(NC(=O)c4ccc(Br)o4)cc3)nn2)n1 | 776 s |
| Cc1nnsc1C(=O)N1CCc2nc(NC(=O)C3CC3)sc2C1 | 630 s |
| COc1cccc(N2CCN(C(=O)c3cc(NC(=O)C(C)C)cc4nc(C)ccc34)CC2)c1 | 681 s |
| Cc1cc(-n2nc(C)cc2C)n2nc(-c3ccc(Cl)cc3)c(C)c2n1 | 1170 s |
| Cc1ccc(-n2nc3c(N4CCCC(C(=O)NCCC5=CCCCC5)C4)nnc(C)c3c2C)cc1 (stereo not given) | 865 s |
| CCn1cc(-c2nc(C(=O)NCc3ccccc3C)cs2)c2cccnc21 | 1060 s |
| CCOC(=O)N1CCN(C(=O)CSc2ccc(-c3sc(C)nc3C)nn2)CC1 | 632 s |
| c1cc(-c2noc(C3CCOC3)n2)cc(N2CCOCC2)n1 (stereo not given) | 651 s |
| CCCOc1ccc(CN2CCN(C(=O)c3ccoc3)CC2)cn1 | 679 s |
| Cc1cc(C)n2cc(CSc3nc4cc([N+](=O)[O-])ccc4s3)nc2n1 | 623 s |
| O=C(NC1CCCC1)C1CCN(C(=O)C2Sc3ccccc3NC2=O)CC1 (stereo not given) | 697 s |
| Cc1ccc(NC(=O)Cn2nc(N3CCOCC3)c3ccccc3c2=O)cc1 | 789 s |
| O=C1NC2CCCCC2NC1CC(=O)N1CCN(C(c2ccccc2)c2ccccc2)CC1 (stereo not given) | 586 s |
| Cc1ccc(C(=O)N2CCOc3ccc(N(C)C)cc3C2)s1 | 632 s |
